Values quoted from earlier work, collected in patent US11213604B2, “Composition for dressing cutaneous lesions and manufacturing method thereof” (priority 2016, dated 2022).

Tested on: cutaneous leishmanial ulcers
Settings: protocols (1), (3), (2) of Stahl et al., BMC Infectious Diseases 2014

**Q.** Which Median healing time does the source give for sodium stilbogluconate here?
**A.** 9 weeks
